Ki data for 6 molecules are collected here from BindingDB's records for PubMed 10688601 (Virginia Commonwealth University, 2000).

The target in assay [1] is Cannabinoid receptor 2 (Mus musculus, UniProt P47936).
Assay [2] concerns the target Cannabinoid receptor 2 (Homo sapiens, UniProt P34972).
The target in assay [3] is T1, Cannabinoid receptor 2 (Rattus norvegicus, UniProt Q9QZN9).
T1 sequence (Q9QZN9 whole entry): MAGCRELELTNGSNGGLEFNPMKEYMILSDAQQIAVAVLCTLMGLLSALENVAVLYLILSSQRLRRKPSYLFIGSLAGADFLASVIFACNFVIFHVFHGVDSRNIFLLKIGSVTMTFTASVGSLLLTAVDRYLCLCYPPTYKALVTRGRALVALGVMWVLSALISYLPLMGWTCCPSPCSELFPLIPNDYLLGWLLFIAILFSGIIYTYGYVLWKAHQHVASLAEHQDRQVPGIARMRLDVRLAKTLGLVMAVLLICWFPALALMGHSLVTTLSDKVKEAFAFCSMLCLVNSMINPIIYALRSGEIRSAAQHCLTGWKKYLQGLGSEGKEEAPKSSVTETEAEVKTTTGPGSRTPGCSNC

Chain of Cannabinoid receptor 2 (Mus musculus, UniProt P47936) (P47936 whole entry): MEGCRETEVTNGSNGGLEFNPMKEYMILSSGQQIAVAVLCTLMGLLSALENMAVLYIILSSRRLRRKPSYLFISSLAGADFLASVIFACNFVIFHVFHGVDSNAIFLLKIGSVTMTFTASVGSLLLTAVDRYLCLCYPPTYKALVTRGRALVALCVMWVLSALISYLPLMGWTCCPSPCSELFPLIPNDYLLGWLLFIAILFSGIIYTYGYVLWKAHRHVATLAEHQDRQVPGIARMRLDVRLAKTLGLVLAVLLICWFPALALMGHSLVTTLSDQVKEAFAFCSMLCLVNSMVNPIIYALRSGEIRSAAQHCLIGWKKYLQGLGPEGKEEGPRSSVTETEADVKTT
Chain of Cannabinoid receptor 2 (Homo sapiens, UniProt P34972) (P34972 whole entry): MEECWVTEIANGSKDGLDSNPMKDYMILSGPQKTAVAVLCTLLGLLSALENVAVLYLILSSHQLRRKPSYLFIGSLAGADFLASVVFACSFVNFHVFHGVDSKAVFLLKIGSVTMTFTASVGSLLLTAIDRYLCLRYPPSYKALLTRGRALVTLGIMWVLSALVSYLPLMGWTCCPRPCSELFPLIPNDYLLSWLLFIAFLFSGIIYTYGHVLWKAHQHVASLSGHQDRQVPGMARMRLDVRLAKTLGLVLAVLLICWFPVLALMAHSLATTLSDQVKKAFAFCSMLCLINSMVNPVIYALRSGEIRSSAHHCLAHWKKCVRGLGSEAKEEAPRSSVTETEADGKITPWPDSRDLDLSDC

With `CCCCC/C=C\C/C=C\C/C=C\C/C=C\CCCC(=O)NCCO` [Arachidonoyl ethanolamide], the Ki in assay [1] came out at 1480 nM.

As for `CCCCCCC(C)(C)c1ccc2c(c1)OC(C)(C)[C@@H]1CC=C(CO)C[C@@H]21` [JWH-051], the Ki in assay [2] was 0.33 nM; in assay [3] it was 3.16 nM; in assay [1], 0.72 nM. Consider `CCCn1c(C)c(C(=O)c2cccc3ccccc23)c2ccccc21`, for which the Ki in assay [3] came to 269 nM; in assay [1], 431 nM. For `CCCCCCC(C)(C)c1ccc([C@H]2C[C@@H](O)CC[C@@H]2CCCO)c(O)c1` [CP-56667 [(+)-AC],XV], the values for the inhibitory constant (Ki) in assay [3] and in assay [1] were 0.64 nM and 0.73 nM, respectively. `Cc1c(C(=O)c2cccc3ccccc23)c2cccc3c2n1[C@H](CN1CCOCC1)CO3` [WIN55212-2] gave an inhibition constant Ki in assay [1] of 9.46 nM.

As for `CCCCCc1cc(O)c2c(c1)OC(C)(C)[C@@H]1CCC(C)=CC21` (stereo not given in full) [Tetrahydrocannabinol], the Ki in assay [1] worked out at 27.3 nM.

The Ki is a measure of affinity in units of concentration, obtained from inhibition or displacement. The low end stands for a stronger hold on the target, the high end for a looser hold on the target.
